CCOc1nc2cccc(C(=O)OC(C)OC(=O)OC3CCCCC3)c2n1Cc1ccc(-c2ccccc2-c2nn[nH]n2)cc1 (stereo not given)
solubility (mole fraction)
Details	in 2-butanone	in acetone	in acetonitrile	in ethanol	in isopropanol	in n-propanol
278.15 K	0.00575	0.00383	0.00026	0.00055	0.00026	0.00062
283.15 K	0.00653	0.00467	0.00033	0.00066	0.00037	0.00079
288.15 K	0.00749	0.00566	0.00044	0.00086	0.00052	0.00098
293.15 K	0.0086	0.00673	0.00058	0.00103	0.0007	0.00132
298.15 K	0.01	0.00783	0.00071	0.0013	0.00093	0.00172
303.15 K	0.0118	0.00946	0.00091	0.00163	0.00128	0.00208
308.15 K	0.0138	0.0111	0.00127	0.00203	0.0017	0.00283
313.15 K	0.016	0.0133	0.00159	0.00271	0.00221	0.00373
318.15 K	0.019	0.0155	0.00195	0.00355	0.00298	0.00452
323.15 K	0.0224	0.0182	0.00263	0.00458	0.00391	0.0059
328.15 K	0.0264	–	0.00343	0.00573	0.00526	0.00759
333.15 K	0.031	–	0.00442	0.00772	0.00667	0.00977
